{"source": "patent US5929038A", "about": "“Pharmaceutical preparations which inhibit hepatitis B virus (HBV) replication” (Choongwae Pharmaceutical Co., Ltd., priority 1992, dated 1999)", "key": {"HBV DNA replication": {"system": "HBV DNA replication", "assay": "Effects on HBV DNA replication in 2.2.15 cells in culture (intracellular HBV DNA and HBV virion DNA)", "type": "cell-based, hepatitis B virus", "conditions": "ddC 25 μM"}, "[1]": {"system": "central and peripheral nervous system", "conditions": "in vivo; cited from earlier work"}, "hematopoietic cells": {"system": "hematopoietic cells", "conditions": "cited from earlier work"}, "[2]": {"conditions": "24 hrs following the 9th day of treatment"}}, "note": "“And” between values parts separate entries of the source, which are not always exact repeats. Equal values may be shown once."}
{"smiles": "Nc1ccn([C@H]2CC[C@@H](CO)O2)c(=O)n1", "note": "[ddC, 2',3'-dideoxycytidine, reference compound]", "values": [{"measurement": "Intracellular HBV DNA, Mono.", "setting": "HBV DNA replication; [2]", "value": "1.1 pg/μg cell DNA and 1.2 pg/μg cell DNA and 0.8 pg/μg cell DNA and 1.0 pg/μg cell DNA"}, {"measurement": "Intracellular HBV DNA, RI (Replicating Intermediate)", "setting": "HBV DNA replication; [2]", "value": 1, "unit": "pg/μg cell DNA"}, {"measurement": "HBV Virion DNA, Day 0", "setting": "HBV DNA replication; Day 0, before first dose", "value": "65 pg/ml culture medium and 70 pg/ml culture medium and 78 pg/ml culture medium and 60 pg/ml culture medium"}, {"measurement": "HBV Virion DNA, Day 3", "setting": "HBV DNA replication; Day 3", "value": "41 pg/ml culture medium and 33 pg/ml culture medium and 31 pg/ml culture medium and 40 pg/ml culture medium"}, {"measurement": "HBV Virion DNA, Day 6", "setting": "HBV DNA replication; Day 6", "value": "15 pg/ml culture medium and 13 pg/ml culture medium and 10 pg/ml culture medium and 12 pg/ml culture medium"}, {"measurement": "toxicity on the central and peripheral nervous system", "setting": "[1]", "value": "high toxicity on the central and peripheral nervous system"}, {"measurement": "toxicity on hematopoietic cells", "setting": "hematopoietic cells", "value": "toxicity on hematopoietic cells"}]}
